Experimental data published in patent publication US20150246888A1, “ENOYL REDUCTASE INHIBITORS WITH ANTIBACTERIAL ACTIVITY” (priority 2012, published 2015).
Converted amounts (≈) assume the structure as drawn. Like-named read-outs stand apart in the source and are kept apart here.

Legend:
[1] = molecular target: FtuFabI (Francisella tularensis subsp. tularensis, UniProt Q5NGQ3); assay: biochemical; parameters: species or system F. tularensis subsp. tularensis Schu4
[2] = system: S. aureus (ATCC number 29213); assay: microbe, parasite or virus in culture; type: cell-based
[3] = system: S. aureus; assay: Cell viability as a function of time (measured with depolarization); type: cell-based
[4] = system: S. aureus membrane; assay: Membrane depolarization as a function of time; type: cell-based
[5] = system: B. anthracis, ΔANR strain; assay: microbe, parasite or virus in culture; type: cell-based; conditions: Bacillus anthracis
[6] = system: E. coli (BW251113 strain); assay: microbe, parasite or virus in culture; type: cell-based; conditions: Escherichia coli
[7] = system: MRSA (ATCC number 43300); assay: microbe, parasite or virus in culture; type: cell-based, methicillin-resistant Staphylococcus aureus; conditions: Staphylococcus aureus
[8] = system: F. tularensis, strain Utah 112; assay: microbe, parasite or virus in culture; type: cell-based; conditions: Francisella tularensis, UTAH112
[9] = molecular target: FabI (Francisella tularensis subsp. tularensis, UniProt Q5NGQ3); assay: biochemical; parameters: species or system F. tularensis subsp. tularensis Schu4
[10] = system: E. coli TolC-, an efflux defective mutant; assay: microbe, parasite or virus in culture; type: cell-based; conditions: Escherichia coli
[11] = read-out: IC50, Inhibition of FabI
[12] = read-out: Ki^2 (Calculated using the Cheng-Prusoff Equation)
[13] = read-out: Ki^1 (Experimental Ki)

Chain of FtuFabI (Q5NGQ3 1-260 limits assumed): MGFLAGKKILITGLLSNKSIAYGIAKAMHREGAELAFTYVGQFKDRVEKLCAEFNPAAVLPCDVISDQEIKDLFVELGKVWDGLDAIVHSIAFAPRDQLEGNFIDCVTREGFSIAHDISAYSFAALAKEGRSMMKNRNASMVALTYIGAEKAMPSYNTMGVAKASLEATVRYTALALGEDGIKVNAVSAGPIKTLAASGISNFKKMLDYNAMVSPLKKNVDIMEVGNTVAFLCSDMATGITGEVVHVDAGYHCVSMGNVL
Chain of FabI (Q5NGQ3 1-260 limits assumed): as above

| SMILES | IC50 [1, 11] [nM] | MIC ([2]; Staphylococcus aureus) [µg/mL] | Cell viability (done at 2X MIC) [3] | Depolarization (done at 2X MIC) [4] | MIC [5] [µg/mL] | MIC [6] [µg/mL] | MBC [7] [µg/mL] | MIC [7] [µg/mL] | MBC [8] [µg/mL] | MIC [8] [µg/mL] | MIC [2] [µg/mL] | MBC ([2]; Staphylococcus aureus) [µg/mL] | MBC [10] [µg/mL] | MIC [10] [µg/mL] | IC50 [1] [nM] | also measured |
| --- | --- | --- | --- | --- | --- | --- | --- | --- | --- | --- | --- | --- | --- | --- | --- | --- |
| Cc1cc2ncn(Cc3ccc(Cl)c(Cl)c3)c2cc1C [Compound 1, 1-(3,4-dichlorobenzyl)-5,6-dimethyl-1H-benzo[d]imidazole] | 300 | 25 (≈ 81.9 µM) | Bactericidal intially but cells recover and compound is not lethal overnight | Depolarization seen initially in the first 60 min | – | – | – | – | – | – | – | – | – | – | – | – |
| N#CC(C#N)=NNc1cccc(Cl)c1 [CCCP, carbonyl cyanide m-chlorophenylhydrazone, reference compound] | – | 1 (≈ 4.89 µM) | bactericidal | Highly depolarizing | – | – | – | – | – | – | – | – | – | – | – | – |
| c1cc2c(cc1Cn1cnc3cc4c(cc31)CCCC4)OCO2 [Compound 14, 1-(benzo[d][1,3]dioxol-5-ylmethyl)-5,6,7,8-tetrahydro-1H-naphtho[2,3-d]imidazole] | 320 | 4.7 (≈ 15.3 µM) | Clearly bacteriostatic | Clearly no depolarization seen | > 12.5 | > 12.5 | > 25 | 6.3 (≈ 20.6 µM) | 18.8 (≈ 61.4 µM) | 4.7 (≈ 15.3 µM) | 4.7 (≈ 15.3 µM) | > 25 | 25 (≈ 81.6 µM) | 9.4 (≈ 30.7 µM) | – | IC50 ([1]; read-out: IC50): 320 nM; Ki [1, 12]: 260 nM; Ki [9, 13]: 330 ± 40 nM |
| CC(c1ccc(Cl)c(Cl)c1)n1cnc2cc3c(cc21)CCCC3 (stereo not drawn) [Compound 4, 1-(1-(3,4-dichlorophenyl)ethyl)-5,6,7,8-tetrahydro-1H-naphtho[2,3-d]imidazole] | – | 3.1 (≈ 8.98 µM) | Clearly bacteriostatic | Initially depolarizing (in first 60 min) but cells ‘recover’ and regain polarization compared to control with no compound | 3.1 (≈ 8.98 µM) | > 12.5 | 25 (≈ 72.4 µM) | 3.1 (≈ 8.98 µM) | 25 (≈ 72.4 µM) | 3.1 (≈ 8.98 µM) | 3.1 (≈ 8.98 µM) | 25 (≈ 72.4 µM) | > 25 | 3.1 (≈ 8.98 µM) | 630 | MBC [5]: 3.1 µg/mL (≈ 8.98 µM); Ki [1]: 510 nM; Ki [9]: 570 ± 140 nM |
| COc1ccc(Cn2cnc3cc4c(cc32)CCCC4)cc1C [Compound 9, 1-(4-methoxy-3-methylbenzyl)-5,6,7,8-tetrahydro-1H-naphtho[2,3-d]imidazole] | 140 | 6.3 (≈ 20.6 µM) | Clearly bacteriostatic | Initially depolarizing (in first 60 min) but cells ‘recover’ and regain polarization compared to control with no compound | 6.3 (≈ 20.6 µM) | > 12.5 | – | 12.5 (≈ 40.8 µM) | 6.3 (≈ 20.6 µM) | 3.1 (≈ 10.1 µM) | 6.3 (≈ 20.6 µM) | 25 (≈ 81.6 µM) | 9.4 (≈ 30.7 µM) | 4.7 (≈ 15.3 µM) | – | MBC [5]: 6.3 µg/mL (≈ 20.6 µM); IC50 ([1]; read-out: IC50): 140 nM; Ki [1, 12]: 110 nM; Ki [9, 13]: 130 ± 10 nM |
| COc1ccc(Cn2cnc3cc4c(cc32)CCCC4)cc1OC [Compound 10, 1-(3,4-dimethoxybenzyl)-5,6,7,8-tetrahydro-1H-naphtho[2,3-d]imidazole] | 1360 | > 12.5 | – | – | > 12.5 | > 12.5 | – | > 12.5 | – | > 12.5 | – | – | – | > 12.5 | – | IC50 ([1]; read-out: IC50): 1360 nM; Ki [1, 12]: 1100 nM; Ki [9, 13]: 1430 ± 270 nM |
| COc1ccc(Cn2cnc3cc4c(cc32)CCCC4)cc1 [Compound 24, 1-(4-methoxybenzyl)-5,6,7,8-tetrahydro-1H-naphtho[2,3-d]imidazole] | – | > 12.5 | – | – | > 12.5 | > 12.5 | – | > 12.5 | 18.8 (≈ 64.3 µM) | 4.7 (≈ 16.1 µM) | – | – | > 25 | 12.5 (≈ 42.8 µM) | 330 | – |
| Cc1cc2ncn(C(C)c3ccc(Cl)c(Cl)c3)c2cc1C (stereo not drawn) [Compound 2, 1-(1-(3,4-dichlorophenyl)ethyl)-5,6-dimethyl-1H-benzo[d]imidazole] | 370 | 12.5 (≈ 39.2 µM) | – | – | 12.5 (≈ 39.2 µM) | > 12.5 | – | 12.5 (≈ 39.2 µM) | – | > 12.5 | – | – | 12.5 (≈ 39.2 µM) | 6.3 (≈ 19.7 µM) | – | – |
| CC1(C)S[C@@H]2[C@H](NC(=O)[C@H](N)c3ccccc3)C(=O)N2[C@H]1C(=O)O [Ampicillin, reference compound] | – | – | bactericidal | No depolarization | – | – | – | – | – | – | 0.4 (≈ 1.14 µM) | – | – | – | – | – |
| CC(c1ccc(Cl)c(Cl)c1)n1cnc2cc3c(cc21)CC(C)(C)C3 (stereo not drawn) [Compound 5, 1-(1-(3,4-dichlorophenyl)ethyl)-6,6-dimethyl-1,5,6,7-tetrahydroindeno[5,6-d]imidazole] | 240 | 4.7 (≈ 13.1 µM) | – | – | > 12.5 | > 12.5 | > 12.5 | 4.7 (≈ 13.1 µM) | – | > 12.5 | – | > 12.5 | – | > 12.5 | – | – |
| c1cc2c(cc1Cn1cnc3cc4c(cc31)CCC4)OCO2 [Compound 19, 1-(benzo[d][1,3]dioxol-5-ylmethyl)-1,5,6,7-tetrahydroindeno[5,6-d]imidazole] | – | 9.4 (≈ 32.2 µM) | – | – | > 12.5 | > 12.5 | > 25 | 10.9 (≈ 37.3 µM) | 37.5 (≈ 128 µM) | 6.3 (≈ 21.6 µM) | – | > 25 | – | > 12.5 | 2200 | – |
| Oc1cc(Cl)ccc1Oc1ccc(Cl)cc1Cl [Triclosan, reference compound] | – | 0.4 (≈ 1.38 µM) | Possibly bacteriostatic initially but then bactericidal after overnight incubation | Strongly depolarizing | – | – | – | – | – | – | – | – | – | – | – | – |
| CC(c1ccc(Cl)c(Cl)c1)n1cnc2cc3c(cc21)CCC3 (stereo not drawn) [Compound 3, 1-(1-(3,4-dichlorophenyl)ethyl)-1,5,6,7-tetrahydroindeno[5,6-d]imidazole] | – | 5.5 (≈ 16.6 µM) | Bacteriostatic | Initially depolarizing (in first 60 min) but cells ‘recover’ and regain polarization compared to control with no compound | 3.9 (≈ 11.8 µM) | > 12.5 | 12.5 (≈ 37.7 µM) | 6.3 (≈ 19 µM) | 9.4 (≈ 28.4 µM) | 3.9 (≈ 11.8 µM) | 5.5 (≈ 16.6 µM) | > 25 | 12.5 (≈ 37.7 µM) | 3.1 (≈ 9.36 µM) | 43 | MBC [5]: 4.7 µg/mL (≈ 14.2 µM) |
| COc1ccc(Cn2cnc3cc4c(cc32)CC(C)(C)C4)cc1C [Compound 11, 1-(4-methoxy-3-methylbenzyl)-6,6-dimethyl-1,5,6,7-tetrahydroindeno[5,6-d]imidazole] | – | > 12.5 | – | – | > 12.5 | > 12.5 | – | > 12.5 | – | > 12.5 | – | – | – | > 12.5 | 14 | – |
